The text below walks through data of patent publication US8304394B2, “Low side effect pharmaceutical composition containing isoniazid” (priority 2008, dated 2012).

By inhibition is commonly meant the relative decrease from the control value, in per cent.

Series [1] has as its target T1, cDNA expressed human cytochrome P450 2E1 (CYP2E1) (Homo sapiens, UniProt P05181).
The subject of another series is rabbits. Particulars: pretreatment with amidase inhibitor; cited from earlier work.
The target in series [2] is T2, human liver microsomal cytochrome P450 2E1 (CYP2E1) (Homo sapiens, UniProt P05181). The series is described as follows: Chlorzoxazone hydroxylation inhibition (6-OH-CZX by LC/MS/MS).
The target of series [3] is T3, CYP2E1 (Homo sapiens, UniProt P05181). The description is as above. Particulars: human, microsomes, pH 7.4.
The target of series [4] is T1, cDNA expressed human cytochrome P450 2E1 (CYP2E1). Particulars: 40 min, pH 7.4.
Series [5] deals with T3, CYP2E1. The series is described as follows: in vitro. Particulars: for inhibition at 40 min, 16.5 µM: tested concentration 16.5 μM.
Series [6] deals with T2, human liver microsomal cytochrome P450 2E1 (CYP2E1). To be noted: for 6-OH-CZX concentration: human, 30 min, pH 7.4.
Series [7] has as its system Male SD (Sprague-Dawley) rats. The series is described as follows: Liver histopathology by light and electron microscopy in the rat INH study. In kind it is in vivo. Here is the method: (§1) Animals were randomized into one of five groups, each involving three treatments. The first treatment involved either a BNPP injection of 25 mg/kg or a BNPP vehicle (VEH1) injection (saline). […] The second treatment involved injections of either 100 mg/kg DSF or DSF vehicle (VEH2, corn oil). DSF was dissolved in corn oil and i.p. injected at a volume of […]. The third treatment involved injections of INH (25 mg/kg) or INH vehicle (VEH3, saline). INH was dissolved in saline (0.9% NaCl), and i.p. injected at a volume of […]. The first treatment (BNPP or VEH1) was administered 30 minutes before the third treatment (INH or VEH3), and the second treatment (DSF or VEH2) was administered 15 minutes before the third treatment (INH or VEH3).
• (1) Normal control group (NC, n=12): continuously injections of VEH1, VEH2 and VEH3 intraperitoneally once every day for 21 days; • (2) INH group (INH, n=7): continuously injections of INH, VEH1 and VEH2 intraperitoneally once every day for 21 days; • (3) BNPP-INH group (BNPP-INH, n=7): continuously injections of BNPP, INH and VEH2 intraperitoneally once every day for 21 days; • (4) DSF-INH group (DSF-INH, n=7): continuously injections of DSF, INH and VEH1 intraperitoneally once every day for 21 days; • (5) BNPP-DSF-INH group (BNPP-DSF-INH, n=7): continuously injections of BNPP DSH and INH intraperitoneally once every day for 21 days;
After the rats were sacrificed, the livers were subjected to histology analysis.

Series [8] relates to Male SD (Sprague-Dawley) rats. Description: Rat 21-day INH hepatotoxicity study: plasma AST/ALT, body and relative liver weight. Particulars: i.p. once daily for 21 days, INH 25 mg/kg, mean±SD.
Series [9] deals with Male SD (Sprague-Dawley) rats. The series is described as follows: Galactose elimination capacity (GEC) residual liver function test in the rat INH study. The class given is in vivo. Particulars: i.p. once daily for 21 days, galactose 0.5 g/kg i.v., mean±SD, control 4.9±0.8. As to the method: as §1
• (1) Normal control group (NC, n=12): continuously injections of VEH1, VEH2 and VEH3 intraperitoneally once every day for 21 days; • (2) INH group (INH, n=7): continuously injections of INH, VEH1 and VEH2 intraperitoneally once every day for 21 days; • (3) BNPP-INH group (BNPP-INH, n=7): continuously injections of BNPP, INH and VEH2 intraperitoneally once every day for 21 days; • (4) DSF-INH group (DSF-INH, n=7): continuously injections of DSF, INH and VEH1 intraperitoneally once every day for 21 days; • (5) BNPP-DSF-INH group (BNPP-DSF-INH, n=7): continuously injections of BNPP DSH and INH intraperitoneally once every day for 21 days; […]

[10] abbreviates: pH 7.4, Inhibition of CYP 2E1 (%).

Like-named read-outs stand apart in the source and are kept apart here.

T3 sequence (P05181 whole entry): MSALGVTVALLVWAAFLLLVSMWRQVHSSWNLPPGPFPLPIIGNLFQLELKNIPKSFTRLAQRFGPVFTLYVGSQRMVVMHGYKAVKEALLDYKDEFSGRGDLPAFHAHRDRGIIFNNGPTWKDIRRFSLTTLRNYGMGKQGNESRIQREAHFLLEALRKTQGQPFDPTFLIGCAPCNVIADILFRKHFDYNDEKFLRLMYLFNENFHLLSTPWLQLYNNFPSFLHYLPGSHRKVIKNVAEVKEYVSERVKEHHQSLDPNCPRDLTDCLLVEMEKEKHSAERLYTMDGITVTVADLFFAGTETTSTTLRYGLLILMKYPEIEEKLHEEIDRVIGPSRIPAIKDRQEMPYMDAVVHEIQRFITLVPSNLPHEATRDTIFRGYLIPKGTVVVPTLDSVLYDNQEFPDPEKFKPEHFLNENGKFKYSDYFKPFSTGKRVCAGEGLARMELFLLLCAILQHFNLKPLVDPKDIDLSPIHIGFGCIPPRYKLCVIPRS
T1 sequence (P05181 whole entry): as above
T2 sequence (P05181 whole entry): as above

As for `CCCCC[C@H](O)CC(=O)CCc1ccc(O)c(OC)c1` [6-Gingerol], in series [1] (tested concentration 33 μM), the “Inhibition of CYP 2E1 (%)” value was found to be 39.83 ± 2.32%.

In the case of `Oc1cc(O)c2c(c1)O[C@H](c1ccc(O)c(O)c1)[C@@H](O)C2` [(+)-Catechin], the figures for the “Inhibition of CYP 2E1 (%)” value in series [1] (tested concentration 16.5 μM), in series [1] (tested concentration 33 μM) and in series [1] (tested concentration 66 μM) were 41.53 ± 7.62%, 33.83 ± 8.76% and 16.45 ± 9.67%, respectively.

`Oc1cc(O)c2c(c1)O[C@H](c1ccc(O)c(O)c1)[C@H](O)C2` [(−)-Epicatechin]: the “Inhibition of CYP 2E1 (%)” value in series [1] (tested concentration 16.5 μM) stood at 18.27 ± 9.34%; in series [1] (tested concentration 33 μM), 15.02 ± 5.50%; in series [1] (tested concentration 66 μM), 2.57 ± 11.60%.

On to `O=[N+]([O-])c1ccc(OP(=O)(O)Oc2ccc([N+](=O)[O-])cc2)cc1` [BNPP, bis-p-nitrophenyl phosphate], for which the “effect on isoniazid-induced hepatotoxicity” value in the series with rabbits is reported as “can prevent isoniazid-induced hepatotoxicity”.

As for `COc1c(O)cc2oc(Oc3ccc(O)cc3)cc(=O)c2c1O` [Capillarisin], the “Inhibition of CYP 2E1 (%)” value in series [2] (tested concentration 16.5 μM) was 32.89 ± 2.46%; in series [2] (tested concentration 33 μM) it was 46.22 ± 2.65%; in series [2] (tested concentration 66 μM), 57.31 ± 1.31%; in series [1] (tested concentration 16.5 μM) it was 49.05 ± 5.18%; in [1] (tested concentration 33 μM) it was 60.54 ± 5.91%; in series [1] (tested concentration 66 μM), 76.12 ± 1.89%.

Regarding `CCN(CC)C(=S)S` [DDTC, Diethyldithiocarbamic acid], the inhibition at 30 min, 50 μM at CYP2E1 [3] came to 48.7%. The inhibition at 30 min, 100 μM at CYP2E1 [3] turned out to be 87.6%. For the same compound, the HFC synthesis is 256.00 pmol in series [4] (0.03 μM); 202.00 pmol in series [4] (0.091 μM); 55.18 pmol in series [4] (2.47 μM); 21.08 pmol in [4] (7.4 μM); 15.10 pmol in series [4] (22.2 μM). On CYP2E1 [5] (pH 7.4, Inhibition of CYP 2E1 (%), DDTC 0.091 μM), the inhibition at 40 min, 0.091 μM was determined as 8.71%. Also, on CYP2E1 [5] (pH 7.4, Inhibition of CYP 2E1 (%), DDTC 2.47 μM), the inhibition at 40 min, 2.47 μM came out at 75.1%. Besides, at CYP2E1 [5] (pH 7.4, Inhibition of CYP 2E1 (%), DDTC 7.4 μM), the inhibition at 40 min, 7.4 μM worked out at 90.5%. Further, the inhibition at 40 min, 22.2 μM against CYP2E1 [5] (pH 7.4, Inhibition of CYP 2E1 (%), DDTC 22.2 μM) came out at 93.2%. Also, the 6-OH-CZX concentration in series [6] (50 μM) is recorded as 1644.5 pmol; in [6] (100 μM), 431.2 pmol.

In the case of `NNC(=O)c1ccncc1` [INH, isoniazid], the “hepatic necrosis (EM results)” value in series [7] (daily i.p. injections for three weeks) was “no hepatic necrosis was observed”. For the same compound, the “liver injury (histopathology)” value in [7] (daily i.p. injections for three weeks, versus control group) is “hepatocellular damage”. In addition, the “hepatocyte rough endoplasmic reticulum (rER) versus control” value in series [7] (electron microscopy 9,000×) is given as “increased significantly”. For the same compound, in series [8] (control 44±6), the “peak plasma ALT activity” value came to 52±3 IU/L. Further, the “peak plasma AST activity” value in series [8] (control 116±11) was found to be 129±10 IU/L. In addition, the GEC value in series [9] is recorded as 3.4±0.6 mg/min·kg.

Regarding `O=c1cc(-c2ccc(O)c(O)c2)oc2cc(O[C@@H]3O[C@H](CO)[C@@H](O)[C@H](O)[C@H]3O)cc(O)c12` [Luteolin-7-Glucoside], the “Inhibition of CYP 2E1 (%)” value was 42.96 ± 5.10% in series [2] (tested concentration 16.5 μM), 55.87 ± 0.67% in [2] (tested concentration 33 μM) and 60.26 ± 1.11% in series [2] (tested concentration 66 μM).

On to `COc1ccc([C@@H]2CC(=O)c3c(O)cc(O[C@@H]4O[C@H](CO)[C@@H](O)[C@H](O)[C@H]4O[C@@H]4O[C@@H](C)[C@H](O)[C@@H](O)[C@H]4O)cc3O2)cc1O` [Neohesperidin], for which the “Inhibition of CYP 2E1 (%)” value in series [2] (tested concentration 16.5 μM) was determined as 42.81 ± 1.75%; in series [2] (tested concentration 33 μM), 48.96 ± 2.37%; in series [2] (tested concentration 66 μM) it was 58.70 ± 1.06%.

On to `CC(Cc1ccc(O)c(O)c1)C(C)Cc1ccc(O)c(O)c1` (stereo not shown) [Nordihydroguaiaretic acid], for which, at CYP2E1 [3], the inhibition at 30 min, 16.5 µM was 49.8 ± 2.42% and the inhibition at 30 min, 66 µM came out at 96.98 ± 0.19%. Besides, the inhibition at 40 min, 33 µM against CYP2E1 [5] (pH 7.4) was found to be 92.4 ± 2.2%. Also, the inhibition at 40 min, 16.5 µM on CYP2E1 [5] (setting [10]) came out at 76.5 ± 3.86%. In addition, the inhibition at 40 min, 66 µM at CYP2E1 [5] (pH 7.4, Inhibition of CYP 2E1 (%), tested concentration 66 μM) stood at 97.99 ± 0.66%. Also, the “Inhibition of CYP 2E1 (%)” value in series [6] (microsomes, 33 µM) is reported as 67.68. ± 2.24%.

Take `O=c1ccc2ccc(O)cc2o1` [Umbelliferone]: the “Inhibition of CYP 2E1 (%)” value in series [4] (33 µM) is on record as −571.97 ± 117.56%; in [4] (66 µM) it was −1081.56 ± 168.00%. Besides, the inhibition at 40 min, 16.5 µM against CYP2E1 [5] (setting [10]) is -280 ± 19.5%.

Regarding `COc1c(O)cc(O)c2c(=O)cc(-c3ccccc3)oc12` [Wongonin], in series [1] (tested concentration 33 μM), the “Inhibition of CYP 2E1 (%)” value was found to be 21.87 ± 1.90%.

As to `O=c1cc(-c2ccccc2)oc2ccc3ccccc3c12` [β-naphthoflavone], the results for the “Inhibition of CYP 2E1 (%)” value in series [1] (tested concentration 16.5 μM), in [1] (tested concentration 33 μM) and in series [1] (tested concentration 66 μM) were 6.52 ± 6.64%, 16.83 ± 0.96% and 15.40 ± 12.94%, respectively.

Regarding (−)-Epicatechin-3-gallate, the “Inhibition of CYP 2E1 (%)” value is reported as 30.31 ± 1.27% in series [2] (tested concentration 16.5 μM), 34.84 ± 1.72% in [2] (tested concentration 33 μM) and 42.92 ± 0.65% in series [2] (tested concentration 66 μM).
